Assay results from US20110144056A1, “PYRAZOLE DERIVATIVES USEFUL AS INHIBITORS OF FAAH” (priority 2008, published 2011).
pIC50: −log10 of the molar value.

Legend:
FAAH [1] = molecular target: T1, FAAH (Homo sapiens, UniProt O00519); assay: FAAH enzyme assay, lysate of CHO cells expressing human FAAH; assay type: biochemical; settings: CHO cell lysate, read-out: Human Lysate
T1 construct: The full length FAAH was subcloned into the mammalian expression vector, pcDEF.neo; expressed in transfected cells; cDNA from Origene
T1 sequence (O00519 1-579): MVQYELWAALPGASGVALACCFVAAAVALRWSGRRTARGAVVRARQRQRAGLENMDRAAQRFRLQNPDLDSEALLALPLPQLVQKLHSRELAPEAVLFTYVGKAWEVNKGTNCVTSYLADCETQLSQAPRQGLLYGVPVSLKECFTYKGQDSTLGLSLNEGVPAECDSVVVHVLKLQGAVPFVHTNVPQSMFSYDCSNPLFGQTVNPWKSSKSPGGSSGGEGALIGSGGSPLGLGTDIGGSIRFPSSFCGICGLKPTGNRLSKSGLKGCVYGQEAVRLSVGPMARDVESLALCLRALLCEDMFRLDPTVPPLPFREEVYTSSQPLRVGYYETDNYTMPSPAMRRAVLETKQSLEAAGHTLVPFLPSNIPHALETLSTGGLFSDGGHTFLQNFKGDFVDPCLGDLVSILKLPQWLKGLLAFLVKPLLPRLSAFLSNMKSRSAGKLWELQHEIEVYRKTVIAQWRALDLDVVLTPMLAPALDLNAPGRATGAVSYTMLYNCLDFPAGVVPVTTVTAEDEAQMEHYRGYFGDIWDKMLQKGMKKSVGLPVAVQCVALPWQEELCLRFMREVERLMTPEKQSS
Excerpt: (§1) To assist in assay development stable cell lines for human, murine and rat full length FAAH were developed. Human FAAH cDNA (Accession No: NM_001441.1) was purchased from Origene (Rockville, Md.). The full length FAAH was subcloned into the mammalian expression vector, pcDEF.neo, using XbaI and […] restriction sites and used for stable cell line generation.
CHO cells expressing FAAH were used to prepare either crude cell lysate or microsome fractions. To harvest cells, tissue culture media was decanted, the monolayer washed three times with Ca^++Mg^++ free PBS and cells recovered after 15 min in enzyme free dissociation media (Millipore Corp, Billerica, Mass.). Cells were collected by centrifuging at 2000 rpm for 15 min. and the cell pellet re-suspended with 50 mM HEPES (pH 7.4) containing 1 mM EDTA and the protease inhibitors aprotinin (1 mg/ml) and leupeptin (100 μM). The suspension was sonicated at 4° C. and the cell lysate recovered after centrifuging at 12,000×g (14,600 rpm, SS34 rotor) for 20 min at 4° C. to form a crude pellet of cell debris, nuclei, peroxisomes, lysosomes, and mitochondria; the supernatant or cell lysate was used for FAAH enzyme assay. In some cases, microsomes fractions enriched in FAAH were prepared by centrifuging the cell lysate further at 27,000 rpm (100,000×g) in SW28 rotor for 50 minutes at 4° C. The pellet containing FAAH-enriched microsomes was re-suspend in 50 mM HEPES, (pH 7.4) 1 mM EDTA, and any remaining DNA sheared by passage of material through a 23 gauge needle and aliquots of enzyme were store at −80° C. prior to use.
(American Radiolabeled Chemicals; 1 mCi/ml) with FAAH (Life Sciences (1995), 56, 1999-2005 and Journal of Pharmacology and Experimented Therapeutics (1997), 283, 729-734), Analytical. Biochemistry (2003), 318, 270-5. In addition, routine assays were performed monitoring hydrolysis of arachidonyl-7-amino-4-methylcoumarin amide (AAMCA) by following increase in fluorescence upon release of 7-amino 4-methyl coumarin (λEX=355 nm, (λEM=460 nm). Analytical. Biochemistry (2005). 343, 143-51.
(§2) Assays are performed on either cell lysate or microsome fractions prepared as described or in whole cell format employing either the fluorescent substrate AAMCA (Cayman chemical, Ann Arbor, Mich.,) or ^3H-anandmaide ([ETHANOLAMINE-1-3H]American Radiolabeled Chemicals; 1 mCi/ml). The cell lysate or microsome assay is performed in Costar black wall, clear bottom plates by adding FAAH_CHO (whole cell, cell lysate or microsome) in assay buffer (50 mM Phosphate, pH 8.0, 1 mM EDTA, 200 mM KCl, 0.2% glycerol, 0.1% fatty acid free BSA) to each well, followed by either DMSO or compound and allowed to incubate at 22-25° C. for fifteen minutes. AAMCA substrate was used to achieve a final concentration of 1 μM and reaction allowed to proceed at room temperature for 1-3 hours. Fluorescent release as a measure of FAAH activity was monitored by reading the plate in a CytoFluor Multiplate Reader ([…]). Whole cell assay is conducted with cells harvested after rinsing tissue culture flasks three times with Ca^++Mg^++ free PBS, incubating for 10 mm in Enzyme free dissociation media and centrifuging for 5 minutes at 1,000 rpm in table top centrifuge. Cells are resuspended in assay buffer at desired cell number in (4×10^4 cells/assay in 96-well format; 1×10^4 cells/assay in 384-well format) and assayed as described.
Alternatively, assays are performed using anandamide [ethanolamine 1-^3H] (specific activity of 10 Ci/mmol) diluted with cold anandamide to achieve a final assay concentration of 1 μM anandamide (˜50,000 cpm). Enzyme (CHO cell lysate, brain or liver homogenate) is incubated in assay buffer (50 mM Phosphate, pH 8.0, 1 mM EDTA, 200 mM KCl, 0.2% glycerol, 0.1% fatty acid free BSA) with inhibitor at 25° C. for 30 minutes. The reaction was terminated by addition of 2 volumes of chloroform:methanol (1:1) and mixed by vortexing. […]

FAAH [2] = molecular target: T1, FAAH; assay: FAAH whole cell assay, CHO cells expressing human FAAH; assay type: cell-based; settings: read-out: Human whole cell
Excerpt: as §1
(§3) Murine (accession number NM_010173) and Rat FAAH (accession number NM_024132) was amplified by reverse transcriptase polymerase chain reaction (RT-PCR) from brain cDNA (BD Biosciences, San Jose, Calif.) using primers 1 and 2 or primers 1 and 3 respectively (see Table). The resulting PCR product was ligated into pCR4TOPO and DNA sequence confirmed. The full length murine FAAH was subcloned into the mammalian expression vector, pcDEFneo using either EcoRI (murine) or KpnI and EcoRI (rat) restriction sites. Chinese hamster ovary cells (CHO) were transfected following manufacturers protocol (AMAXA). Forty eight hours post transfection, cells were trypsinized and transferred to 96 well plates in Iscove's DMEM media supplemented with 2 mM Glutamine, 10% fetal calf serum, 1 mg/ml geneticin and HT Supplement (0.1 mM sodium hypoxanthine, 0.016 mM thymidine) in order to isolate single clones. Following selection in geneticin, individual clones were selected and FAAH activity was assessed using a whole cell fluorescent anandamide assay, modified from Ramarao et al (2005). Following removal of tissue culture media cells were dislodged following addition of Cellstripper (Mediatech, Inc. Manassas, Va.) and transferred to 96 well black clear bottom assay plate, centrifuged at 1,000 rpm for 3 mins and media removed and replaced with assay buffer (50 mM Tris pH8.0, 1 mM EDTA, 0.1% fatty acid free BSA). The reaction was initiated by addition of fluorescent substrate, AMC Arachidonoyl Amide (Cayman Chemical, Ann Arbor, Mich.) to 1 μM and reaction allowed to proceed for 2 hours at room temperature. Release of fluorescence was monitored in a CytoFluor Multiplate Reader. Cells expressing the highest amount of FAAH activity were selected for study with FAAH inhibitors.
as §2

FAAH [3] = molecular target: T2, FAAH (Rattus norvegicus, UniProt P97612); assay: FAAH whole cell assay, CHO cells expressing rat FAAH; assay type: cell-based
T2 construct: expressed in transfected cells; cDNA by RT-PCR from brain cDNA (BD Biosciences)
T2 sequence (P97612 1-579): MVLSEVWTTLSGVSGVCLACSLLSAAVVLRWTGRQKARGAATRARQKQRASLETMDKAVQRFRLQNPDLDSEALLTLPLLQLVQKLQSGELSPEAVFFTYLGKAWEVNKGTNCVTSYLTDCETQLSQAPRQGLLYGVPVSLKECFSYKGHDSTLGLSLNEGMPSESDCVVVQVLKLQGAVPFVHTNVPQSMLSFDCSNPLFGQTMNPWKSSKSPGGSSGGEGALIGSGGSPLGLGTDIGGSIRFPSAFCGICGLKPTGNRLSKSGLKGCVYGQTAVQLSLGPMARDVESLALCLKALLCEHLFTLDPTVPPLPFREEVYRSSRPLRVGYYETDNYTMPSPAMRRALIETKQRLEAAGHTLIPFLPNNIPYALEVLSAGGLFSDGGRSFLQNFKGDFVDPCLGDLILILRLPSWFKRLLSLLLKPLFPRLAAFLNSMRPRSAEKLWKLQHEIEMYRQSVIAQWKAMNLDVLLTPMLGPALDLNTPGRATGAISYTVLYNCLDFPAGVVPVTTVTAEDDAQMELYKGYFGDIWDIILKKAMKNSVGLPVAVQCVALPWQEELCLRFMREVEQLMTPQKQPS
Excerpt: as §3, §2

Compound	pIC50 (FAAH [1])	pIC50 (FAAH [2])	pIC50 (FAAH [3])
CS(=O)(=O)c1ccc(-c2c(Sc3ccc(Cl)cc3)cnn2-c2ccc(F)cc2)cc1 [Ex 25, 4-[(4-Chlorophenyl)thio]-2-(4-fluorophenyl)-3-[4-(methylsulfonyl)phenyl]-1H-pyrazole]	6.57	6.63	6.53
O=C(NCCCl)c1ccc(-c2nn(-c3ccccc3)cc2Sc2ccc(Cl)cc2)cc1 [Example 121, N-(2-Chloroethyl)-4-{4-[(4-chlorophenyl)thio]-1-phenyl-1H-pyrazol-3-yl}benzamide]	7.10	6.91	7.28

Results, then the compound that gave them:

pIC50 (FAAH [1])	pIC50 (FAAH [2])	pIC50 (FAAH [3])	Compound
7.00	6.23	6.86	[O-][n+]1cccc(-n2cc(Sc3ccc(Cl)cc3)c(-c3ccc(-c4ncon4)cc3)n2)c1 [Example 75]
6.92	6.40	6.80	Clc1ccc(Sc2cn(-c3ccccc3)nc2-c2ccc(-c3c[nH]nn3)cc2)cc1 [Example 88, 4-(4-{4-[(4-Chlorophenyl)thio]-1-phenyl-1H-pyrazol-3-yl}phenyl)-1H-1,2,3-triazole]
7.59	7.18	7.74	CC(C)(O)c1cnc(-c2nn(-c3ccc(F)cn3)cc2Sc2ccc(Cl)cc2)cn1 [Example 229, 2-{5-[4-[(4-Chlorophenyl)thio]-1-(5-fluoropyridin-2-yl)-1H-pyrazol-3-yl}pyrazin-2-yl]propan-2-ol]
